Test [1] deals with bacteria, fungi and yeasts. As to conditions: general statement, no test described, cited from earlier work.
In test [2] the test system is Aspergillus brasiliensis. The test can be described thus: Minimum inhibitory concentration (MIC) in agar. The class given is cell-based. As to conditions: Aspergillus brasiliensis (F). The protocol: (§1) Below, the antimicrobial efficacy of a composition according to the invention consisting of 50% by weight of isorbide caprylate 1 and 50% by weight of ethylhexylglycerin against bacteria, fungi and yeasts is examined (hereinbelow, the composition is referred to as “composition A”). For the tests with bacteria, composition A was diluted with butyl polyglycol and then, at 50° C., added to liquid CASO agar (casein-peptone agar) buffered to pH 7 (+/−0.2) in various concentrations (hereinbelow referred to as compositions B1, B2, etc.). For the tests with fungi and yeasts, composition A was diluted with butyl polyglycol and then added to liquid Sabouraud 4% dextrose agar buffered to pH 5.6 (+/−0.2) in various concentrations (hereinbelow referred to as compositions PH1, PH2, etc.). The compositions B1, B2, etc. and PH1, PH2 etc. were each poured into Petri dishes and each inoculated with identical amounts of bacteria, fungi and yeasts. The minimum inhibitory concentration (MIC) is the concentration at which inhibition of the growth of the bacteria, fungi and yeasts in the compositions B1, B2, etc. and PH1, PH2, etc. occurs.
(§2) The minimum inhibitory concentrations for the pure substances isosorbide caprylate 1 and ethylhexylglycerin were determined analogously.
(§3) The values determined for the minimum inhibitory concentrations “MIC mixture”, stated in Table 1 below, are based on the concentrations of composition A.
(§4) The values determined for the minimum inhibitory concentrations “QA” and “QB”, stated in Table 1 below, have already been corrected for the dilution effect of the butyl polyglycol.
(§5) From the minimum inhibitory concentrations determined, it is then possible to calculate whether a synergistic effect is present or not. Whether a synergistic effect is present is calculated according to F. C. Kull et al., Applied Microbiology 1961, 9, 538 using the formula below: […]
(§6) where • Qa is the minimum inhibitory concentration of isosorbide caprylate 1 in the mixture employed, • QA is the minimum inhibitory concentration of isosorbide caprylate 1, • Qb is the minimum inhibitory concentration of ethylhexylglycerin in the mixture employed and • QB is the minimum inhibitory concentration of ethylhexylglycerin.
(§7) The values for Qa and Qb are determined from the values for the mixtures (“MIC mixture”) by multiplying the minimum inhibitory concentrations determined for Qa with the factor 0.5 and for Qb with the factor 0.5, because of the proportions of the ingredients—50% by weight of isosorbide caprylate 1 and 50% by weight of ethylhexylglycerin—in composition A according to the invention examined.
(§8) If an SE value>1 is obtained, an antagonistic effect is present. If SE=1, the compounds are neutral with respect to one another, and if SE<1, a synergistic effect is present.
(§9) Analogously to the determination of the antimicrobial activity according to the above example B), the antimicrobial activity of a mixture comprising, firstly, 89.6% by weight of isosorbide dicaprylate and 9.4% by weight of isosorbide monocaprylate (remainder: 1% by weight) (hereinbelow referred to as “isosorbide dicaprylate”) and, secondly, pure isosorbide was determined in further test series.

Test [3] relates to Aspergillus terreus. The experiment in a line: Minimum inhibitory concentration (MIC) in agar. Format: cell-based. The following applies: Aspergillus terreus (F). The method, then:
as §1, §2, §3, §4, §5, §6, §7, §8, §9

The subject of test [4] is Candida albicans. The test can be described thus: Minimum inhibitory concentration (MIC) in agar. Format: cell-based. As to conditions: Candida albicans (Y). The protocol: as §1, §2, §3, §4, §5, §6, §7, §8, §9
Test [5] deals with Citrobacter freundii. The test can be described thus: Minimum inhibitory concentration (MIC) in agar. The class given is cell-based. As to conditions: Citrobacter freundii (B). The protocol:
as §1, §2, §3, §4, §5, §6, §7, §8, §9

Test [6] relates to Enterobacter aerogenes. The experiment in a line: Minimum inhibitory concentration (MIC) in agar. Format: cell-based. As to conditions: Enterobacter aerogenes (B). The protocol: as §1, §2, §3, §4, §5, §6, §7, §8, §9
Test [7] has as its system Escherichia coli. The experiment in a line: Minimum inhibitory concentration (MIC) in agar. The class given is cell-based. As to conditions: Escherichia coli (B). The method, then: as §1, §2, §3, §4, §5, §6, §7, §8, §9
The test system of test [8] is Fusarium solani. The test can be described thus: Minimum inhibitory concentration (MIC) in agar. As to conditions: Fusarium solani (F). The class given is cell-based. The method, then: as §1, §2, §3, §4, §5, §6, §7, §8, §9
For test [9], the system named is Klebsiella pneumoniae. The experiment in a line: Minimum inhibitory concentration (MIC) in agar. The class given is cell-based. As to conditions: Klebsiella pneumoniae (B). The protocol:
as §1, §2, §3, §4, §5, §6, §7, §8, §9

The test system of test [10] is Penicillium funicolosium. The test can be described thus: Minimum inhibitory concentration (MIC) in agar. The class given is cell-based. The following applies: Penicillium funicolosium (F). The protocol: as §1, §2, §3, §4, §5, §6, §7, §8, §9
Test [11] has as its system Penicillium minioluteum. The experiment in a line: Minimum inhibitory concentration (MIC) in agar. Format: cell-based. The following applies: Penicillium minioluteum (F). The method, then:
as §1, §2, §3, §4, §5, §6, §7, §8, §9

Test [12] has as its system Proteus vulgaris. The test can be described thus: Minimum inhibitory concentration (MIC) in agar. The following applies: Proteus vulgaris (B). Format: cell-based. The method, then: as §1, §2, §3, §4, §5, §6, §7, §8, §9
In test [13] the test system is Pseudomonas aeruginosa. The test can be described thus: Minimum inhibitory concentration (MIC) in agar. The class given is cell-based. The following applies: Pseudomonas aeruginosa (B). The protocol:
as §1, §2, §3, §4, §5, §6, §7, §8, §9

The test system of test [14] is Pseudomonas oleovorans. The experiment in a line: Minimum inhibitory concentration (MIC) in agar. Format: cell-based. The following applies: Pseudomonas oleovorans (B). The protocol:
as §1, §2, §3, §4, §5, §6, §7, §8, §9

Test [15] concerns Staphylococcus aureus. The test can be described thus: Minimum inhibitory concentration (MIC) in agar. The class given is cell-based. As to conditions: Staphylococcus aureus (B). The method, then: as §1, §2, §3, §4, §5, §6, §7, §8, §9
The subject of test [16] is bacteria, fungi and yeasts. The experiment in a line: Antimicrobial efficacy, overall statements. Format: cell-based. The method, then: Below, the antimicrobial efficacy of a composition according to the invention consisting of 50% by weight of isorbide caprylate 1 and 50% by weight of ethylhexylglycerin against bacteria, fungi and yeasts is examined (hereinbelow, the composition is referred to as “composition A”). For the tests with bacteria, composition A was diluted with butyl polyglycol and then, at 50° C., added to liquid CASO agar (casein-peptone agar) buffered to pH 7 (+/−0.2) in various concentrations (hereinbelow referred to as compositions B1, B2, etc.). For the tests with fungi and yeasts, composition A was diluted with butyl polyglycol and then added to liquid Sabouraud 4% dextrose agar buffered to pH 5.6 (+/−0.2) in various concentrations (hereinbelow referred to as compositions PH1, PH2, etc.). […]
as §2, §9

Setting [17] is: MIC mixture x factor 0.5 (composition A).
Setting [18] is: Sabouraud 4% dextrose agar pH 5.6 (+/-0.2).
[19] abbreviates: Sabouraud 4% dextrose agar pH 5.6 (+/-0.2), read-out: minimum inhibitory concentration (MIC), meas.
[20] abbreviates: CASO agar pH 7 (+/-0.2), read-out: minimum inhibitory concentration (MIC), meas.

Read-outs that look alike come from different tables or passages of the source.

As for `CCCCCCCC(=O)O` [caprylic acid], the “antimicrobial activity (in words)” value in [1] (at a pH of 6 or above) is listed as “no antimicrobial activity”. For the same compound, the “antimicrobial efficacy (in words)” value in [1] was “antimicrobially effective”.

As to `CCCCC(CC)COCC(O)CO` (stereo not shown) [ethylhexylglycerin], the “minimum inhibitory concentration of the component in the mixture employed (Qa / Qb), calc.” value in [2] (setting [17]) is recorded as 375 ppm; in test [3] (setting [17]) it was 250 ppm; in [4] (setting [17]), 375 ppm; in test [5] (setting [17]), 750 ppm; in test [6] (setting [17]) it was 2500 ppm; in test [7] (setting [17]) it was 750 ppm. Besides, the “minimum inhibitory concentration of the component in the mixture employed (Qa / Qb), calc.” value is recorded as 125 ppm in test [8] (setting [17]); 1000 ppm in test [9] (setting [17]); 125 ppm in test [10] (setting [17]); 250 ppm in [11] (setting [17]); 750 ppm in [12] (setting [17]); 2500 ppm in [13] (setting [17]). Moreover, the “minimum inhibitory concentration of the component in the mixture employed (Qa / Qb), calc.” value in test [14] (setting [17]) is 5000 ppm; in test [15] (setting [17]), 500 ppm. Also, the “minimum inhibitory concentration (MIC), meas.” value in test [2] (setting [18]) is 1000 ppm; in test [3] (setting [18]) it was 1000 ppm; in [4] (setting [18]), 1000 ppm; in [5] (CASO agar pH 7 (+/-0.2)), 1500 ppm; in test [6] (CASO agar pH 7 (+/-0.2)), 2000 ppm; in [7] (CASO agar pH 7 (+/-0.2)) it was 1000 ppm. Further, the “minimum inhibitory concentration (MIC), meas.” value was found to be 500 ppm in test [8] (setting [18]); 2000 ppm in test [9] (CASO agar pH 7 (+/-0.2)); 500 ppm in test [10] (setting [18]); 750 ppm in test [11] (setting [18]); 1500 ppm in test [12] (CASO agar pH 7 (+/-0.2)); 5000 ppm in [13] (CASO agar pH 7 (+/-0.2)). The results for the “minimum inhibitory concentration (MIC), meas.” value in test [14] (CASO agar pH 7 (+/-0.2)) and in test [15] (CASO agar pH 7 (+/-0.2)) were 5000 ppm and 750 ppm, respectively.

As for `O[C@@H]1CO[C@H]2[C@@H]1OC[C@@H]2O` [isosorbide], the MIC amounted to 10000 µg/mL in test [2] (setting [19]); 10000 µg/mL in [3] (setting [19]); 10000 µg/mL in test [4] (setting [19]); 10000 µg/mL in test [5] (setting [20]); 10000 µg/mL in test [6] (Klebsiella aerogenes, CASO agar pH 7 (+/-0.2), read-out: minimum inhibitory concentration (MIC), meas.); 10000 µg/mL in test [7] (setting [20]). For the same compound, the MIC came out at 10000 µg/mL in test [8] (setting [19]); 10000 µg/mL in [9] (setting [20]); 10000 µg/mL in [10] (setting [19]); 10000 µg/mL in [11] (Talaromyces minioluteus, Sabouraud 4% dextrose agar pH 5.6 (+/-0.2), read-out: minimum inhibitory concentration (MIC), meas.); 10000 µg/mL in [12] (setting [20]); 10000 µg/mL in test [13] (setting [20]). Also, the MIC turned out to be 10000 µg/mL in [14] (Ectopseudomonas oleovorans, CASO agar pH 7 (+/-0.2), read-out: minimum inhibitory concentration (MIC), meas.) and 10000 µg/mL in test [15] (setting [20]). For the same compound, in test [16] (summary of the results of Table 2), the “antimicrobial activity (in words)” value is “neither isosorbide nor isosorbide dicaprylate are antimicrobially active”.

Turning to isosorbide monocaprylate, in [16] (concluded from the MICs of isosorbide caprylate 1 and of its other constituents), the “antimicrobial activity (in words)” value is listed as “significant antimicrobial activity”.

The values above are taken from patent publication US20160000080A1, “COMPOSITIONS CONTAINING ISOSORBIDE MONOESTER AND ALIPHATIC VICINAL DIOLS” (CLARIANT INTERNATIONAL LTD., priority 2011, published 2016).
